The text below walks through data of US11856974B2, “Highly soluble stevia sweetener” (PureCircle Sdn Bhd, priority 2011, dated 2024).

Read-outs that look alike come from different tables or passages of the source. Bounds are passed on as bounds.

The conditions of data set [1]: cited from earlier work.
For data set [2] the following is noted: background description of Rebaudioside A forms, % = grams soluble in 100 grams of solvent, cited from earlier work.
A short description of data set [3]: Solubility comparison of spray dried amorphous powder samples. Type of data set: physicochemical. The following applies: room temperature. The procedure: Hereinafter, unless specified otherwise, the solubility of material is determined in RO (reverse osmosis) water at room temperature. Where the solubility is expressed as “%” it to be understood as number of grams of material soluble in 100 grams of solvent.

The nature of data set [4]: Solubility in RO water at room temperature. Type of data set: physicochemical. Conditions: % = grams soluble in 100 grams of solvent. On the procedure:
Hereinafter, unless specified otherwise, the solubility of material is determined in RO (reverse osmosis) water at room temperature.

For `C=C1C[C@@]23CC[C@H]4[C@@](C)(CCC[C@@]4(C)C(=O)O[C@@H]4O[C@H](CO)[C@@H](O)[C@H](O)[C@H]4O)[C@@H]2CC[C@]1(O[C@@H]1O[C@H](CO)[C@@H](O)[C@H](O[C@@H]2O[C@H](CO)[C@@H](O)[C@H](O)[C@H]2O)[C@H]1O[C@@H]1O[C@H](CO)[C@@H](O)[C@H](O)[C@H]1O)C3` [Form 1, Rebaudioside A], the results for the “Rate of dissolution in H2O at 25° C.” value in data set [1] (grade in words) and in data set [1] (in 60 minutes) were “Very low” and “(<0.2% in 60”, respectively. In addition, in data set [2] (listed as hydrate form), the solubility result is given as “less than 0.2%”.

As to `C=C1C[C@@]23CC[C@H]4[C@@](C)(CCC[C@@]4(C)C(=O)O[C@@H]4O[C@H](CO)[C@@H](O)[C@H](O)[C@H]4O)[C@@H]2CC[C@]1(O[C@@H]1O[C@H](CO)[C@@H](O)[C@H](O[C@@H]2O[C@H](CO)[C@@H](O)[C@H](O)[C@H]2O)[C@H]1O[C@@H]1O[C@H](CO)[C@@H](O)[C@H](O)[C@H]1O)C3` [Sample #3, Rebaudioside A], the “Observation (solubility)” value in data set [3] (at 5% in water) is on record as “Clear solution”; in data set [3] (at 10% in water) it was “Clear solution”; in data set [3] (at 20% in water) it was “Clear solution”; in data set [3] (at 30% in water), “Clear solution”; in data set [3] (at 40% in water) it was “Slightly cloudy”.

For `C=C1C[C@@]23CC[C@H]4[C@@](C)(CCC[C@@]4(C)C(=O)O[C@@H]4O[C@H](CO)[C@@H](O)[C@H](O)[C@H]4O)[C@@H]2CC[C@]1(O[C@@H]1O[C@H](CO)[C@@H](O)[C@H](O[C@@H]2O[C@H](CO)[C@@H](O)[C@H](O)[C@H]2O)[C@H]1O[C@@H]1O[C@H](CO)[C@@H](O)[C@H](O)[C@H]1O)C3` [Crystalline Rebaudioside A, Rebaudioside A], the solubility in data set [2] is reported as 1%-2%.

On to `C=C1C[C@@]23CC[C@H]4[C@@](C)(CCC[C@@]4(C)C(=O)O[C@@H]4O[C@H](CO)[C@@H](O)[C@H](O)[C@H]4O)[C@@H]2CC[C@]1(O[C@@H]1O[C@H](CO)[C@@H](O)[C@H](O[C@@H]2O[C@H](CO)[C@@H](O)[C@H](O)[C@H]2O)[C@H]1O[C@@H]1O[C@H](CO)[C@@H](O)[C@H](O)[C@H]1O)C3` [Sample #1, Rebaudioside A], for which the “Observation (solubility)” value is reported as “Clear solution” in data set [3] (at 5% in water), “Slightly cloudy” in data set [3] (at 10% in water), “Cloudy solution” in data set [3] (at 20% in water) and “Undissolved matter” in data set [3] (at 30% in water).

As for `C=C1C[C@@]23CC[C@H]4[C@@](C)(CCC[C@@]4(C)C(=O)O[C@@H]4O[C@H](CO)[C@@H](O)[C@H](O)[C@H]4O)[C@@H]2CC[C@]1(O[C@@H]1O[C@H](CO)[C@@H](O)[C@H](O[C@@H]2O[C@H](CO)[C@@H](O)[C@H](O)[C@H]2O)[C@H]1O[C@@H]1O[C@H](CO)[C@@H](O)[C@H](O)[C@H]1O)C3` [Form 3, Rebaudioside A], the “Rate of dissolution in H2O at 25° C.” value is reported as “High” in data set [1] (grade in words) and over 30% in data set [1] (in 5 minutes).

Take `C=C1C[C@@]23CC[C@H]4[C@@](C)(CCC[C@@]4(C)C(=O)O[C@@H]4O[C@H](CO)[C@@H](O)[C@H](O)[C@H]4O)[C@@H]2CC[C@]1(O[C@@H]1O[C@H](CO)[C@@H](O)[C@H](O[C@@H]2O[C@H](CO)[C@@H](O)[C@H](O)[C@H]2O)[C@H]1O[C@@H]1O[C@H](CO)[C@@H](O)[C@H](O)[C@H]1O)C3` [Form 2, Rebaudioside A]: in data set [1] (grade in words), the “Rate of dissolution in H2O at 25° C.” value was “Intermediate”. Further, the solubility result in data set [2] (listed as anhydrous form) is “up to 30%”.

Compound `C=C1C[C@@]23CC[C@H]4[C@@](C)(CCC[C@@]4(C)C(=O)O[C@@H]4O[C@H](CO)[C@@H](O)[C@H](O)[C@H]4O)[C@@H]2CC[C@]1(O[C@@H]1O[C@H](CO)[C@@H](O)[C@H](O[C@@H]2O[C@H](CO)[C@@H](O)[C@H](O)[C@H]2O)[C@H]1O[C@@H]1O[C@H](CO)[C@@H](O)[C@H](O)[C@H]1O)C3` [rebaudioside A] registered a solubility in water in data set [4] of 0.6%.

Take `C=C1C[C@@]23CC[C@H]4[C@@](C)(CCC[C@@]4(C)C(=O)O[C@@H]4O[C@H](CO)[C@@H](O)[C@H](O)[C@H]4O)[C@@H]2CC[C@]1(O[C@@H]1O[C@H](CO)[C@@H](O)[C@H](O[C@@H]2O[C@H](CO)[C@@H](O)[C@H](O)[C@H]2O)[C@H]1O[C@@H]1O[C@H](CO)[C@@H](O)[C@H](O)[C@H]1O)C3` [Form 4, Rebaudioside A]: the “Rate of dissolution in H2O at 25° C.” value in data set [1] (grade in words) was “High”; in data set [1] (in 5 minutes), over 35%.

Turning to `C=C1C[C@@]23CC[C@H]4[C@@](C)(CCC[C@@]4(C)C(=O)O[C@@H]4O[C@H](CO)[C@@H](O)[C@H](O)[C@H]4O)[C@@H]2CC[C@]1(O[C@@H]1O[C@H](CO)[C@@H](O)[C@H](O[C@@H]2O[C@H](CO)[C@@H](O)[C@H](O)[C@H]2O)[C@H]1O[C@@H]1O[C@H](CO)[C@@H](O)[C@H](O)[C@H]1O)C3` [highly soluble amorphous form of rebaudioside A], the solubility in water entry in data set [4] is reported as “greater than 30%”.

As to `C=C1C[C@@]23CC[C@H]4[C@@](C)(CCC[C@@]4(C)C(=O)O[C@@H]4O[C@H](CO)[C@@H](O)[C@H](O)[C@H]4O)[C@@H]2CC[C@]1(O[C@@H]1O[C@H](CO)[C@@H](O)[C@H](O[C@@H]2O[C@H](CO)[C@@H](O)[C@H](O)[C@H]2O)[C@H]1O[C@@H]1O[C@H](CO)[C@@H](O)[C@H](O)[C@H]1O)C3` [Sample #2, Rebaudioside A], the “Observation (solubility)” value in data set [3] (at 5% in water) was “Clear solution”; in data set [3] (at 10% in water) it was “Clear solution”; in data set [3] (at 20% in water) it was “Slightly cloudy”; in data set [3] (at 30% in water), “Cloudy solution”.
